Test results as given in patent US20240391882A1 (Mirati Therapeutics, Inc., priority 2023, published 2024).

Experiments:
[1] = system: T47D (PI3Kα H1047R mutant) cells; assay: Cell viability (CellTiter-Glo 2.0) in T47D cells; format: cell-based; conditions: Homo sapiens, T47D, 72 h, approximately 72 hours
How it was run: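 SKBR3 or T47D cells, 1000 per well, were seeded overnight and then exposed ~72 h at 37° C to 10 concentrations of compound, 1:4 dilutions from 10 μm. Viability read by CellTiter-Glo luminescence as percent of vehicle; IC50 from four-parameter variable-slope fit.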

[2] = system: SKBR3 (PI3Kα wild type) cells; assay: Cell viability (CellTiter-Glo 2.0) in SKBR3 cells; format: cell-based; conditions: Homo sapiens, SK-BR-3; SKBR3 (PI3Kα wild type) cells, approximately 72 hours, CellTiter-Glo 2.0; read-out: SKBR3 (WT) Viability IC50
Description: This Example illustrates that representative compounds of the invention decrease the viability of cells.
The ability of a compound of Formula (I) to decrease the viability of cells was measured using CellTiter-Glo 2.0 (CTG) Luminescent Cell Viability Assay (#G9241) obtained from Promega (Madison, WI).
To prepare assay plates for viability assays, cells were trypsinized, resuspended in fresh media, and viable cells were counted utilizing trypan blue exclusion. T47D, SKBR3, or MKN1 cells were seeded at 1000 cells in 30 μl per well in a solid white flat bottom 384 cell culture plate (Perkin Elmer #6007680) and incubated at 37° C. overnight.
Assay day 1, cells were dosed using an Echo Liquid Handler (Beckman Coulter) with compounds at a 10 μm starting concentration and serially diluted (1:4) for a total of 10 concentrations. Cells were incubated for approximately 72 hours with the compounds (solubilized in DMSO) at 37° C. After 72 hours of treatment, cell plates were equilibrated to room temperature before adding 15 μl of CTG to each well, plates were then covered in aluminum foil to protect from light, incubated at room temperature for 30 minutes on a microtiter plate shaker, and luminescence readings were collected using a CLARIOstar microplate reader (BMG Labtech, Germany). Percent of vehicle control values were plotted as log(inhibitor) vs. response—Variable slope (four parameters) for curve fitting and IC50 values were determined using XLfit.

Row | SMILES | IC50 [1] | IC50 [2]
1 | Cc1cc([C@@H](C)Nc2scnc2C(=O)O)c2nc(N3CCC(F)(F)CC3)c(C#N)nc2c1 [Example 39, (R)-5-((1-(2-cyano-3-(4,4-difluoropiperidin-1-yl)-7-methylquinoxalin-5-yl)ethyl)amino)thiazole-4-carboxylic acid] | 2680 nM | 6230 nM
2 | Cc1cc([C@@H](C)Nc2ccc(Cl)nc2C(=O)O)c2nc(N3CCC(F)(F)CC3)c(C3CC3)nc2c1 [Example 48, (R)-6-chloro-3-((1-(2-cyclopropyl-3-(4,4-difluoropiperidin-1-yl)-7-methylquinoxalin-5-yl)ethyl)amino)picolinic acid] | 95.3 nM | > 10000 nM
3 | Cc1cc([C@@H](C)Nc2ccccc2C(=O)O)c2nc(N3CC4(COC4)C3)c(C#N)nc2c1 [Example 59, (R)-2-((1-(2-cyano-7-methyl-3-(2-oxa-6-azaspiro[3.3]heptan-6-yl)quinoxalin-5-yl)ethyl)amino)benzoic acid] | 140 nM | > 10000 nM
4 | Cc1cc([C@@H](C)Nc2ccc(Cl)nc2C(=O)O)c2nc(N3CC4(COC4)C3)c(C#N)nc2c1 [Example 60, (R)-6-chloro-3-((1-(2-cyano-7-methyl-3-(2-oxa-6-azaspiro[3.3]heptan-6-yl)quinoxalin-5-yl)ethyl)amino)picolinic acid] | 21.1 nM | > 10000 nM
5 | Cc1cc([C@@H](C)Nc2ccccc2C(=O)O)c2nc(N3CCC(C)(C(F)(F)F)CC3)c(C#N)nc2c1 [Example 65, (R)-2-((1-(2-cyano-7-methyl-3-(4-methyl-4-(trifluoromethyl)piperidin-1-yl)quinoxalin-5-yl)ethyl)amino)benzoic acid] | 456 nM | > 10000 nM
6 | Cc1cc([C@@H](C)Nc2ccc(Cl)nc2C(=O)O)c2nc(N3CCC(C)(C(F)(F)F)CC3)c(C#N)nc2c1 [Example 66, (R)-6-chloro-3-((1-(2-cyano-7-methyl-3-(4-methyl-4-(trifluoromethyl)piperidin-1-yl)quinoxalin-5-yl)ethyl)amino)picolinic acid] | 78 nM | 7680 nM
7 | Cc1cc([C@@H](C)Nc2ccccc2C(=O)O)c2nc(N3CCC(F)(F)C3)c(C#N)nc2c1 [Example 71, (R)-2-((1-(2-cyano-3-(3,3-difluoropyrrolidin-1-yl)-7-methylquinoxalin-5-yl)ethyl)amino)benzoic acid] | 276 nM | > 10000 nM
8 | Cc1cc([C@@H](C)Nc2ccc(Cl)nc2C(=O)O)c2nc(NCC3(C)CC3(F)F)c(C#N)nc2c1 (stereo partly drawn) [Example 74, 6-chloro-3-(((1R)-1-(2-cyano-3-(((2,2-difluoro-1-methylcyclopropyl)methyl)amino)-7-methylquinoxalin-5-yl)ethyl)amino)picolinic acid] | 95 nM | > 10000 nM
9 | Cc1cc([C@@H](C)Nc2ccccc2C(=O)O)c2nc(NC3CC(F)(F)C3)c(C#N)nc2c1 [Example 76, (R)-2-((1-(2-cyano-3-((3,3-difluorocyclobutyl)amino)-7-methylquinoxalin-5-yl)ethyl)amino)benzoic acid] | 324 nM | > 10000 nM
10 | Cc1cc([C@@H](C)Nc2ccc(Cl)nc2C(=O)O)c2nc(NC3CC(F)(F)C3)c(C#N)nc2c1 [Example 77, (R)-6-chloro-3-((1-(2-cyano-3-((3,3-difluorocyclobutyl)amino)-7-methylquinoxalin-5-yl)ethyl)amino)picolinic acid] | 77 nM | 8610 nM
11 | Cc1cc([C@@H](C)Nc2ccc(Cl)nc2C(=O)O)c2nc(N3CCC(F)(F)[C@H](C)C3)c(C#N)nc2c1 [Example 78A, 6-chloro-3-(((R)-1-(2-cyano-3-((R)-4,4-difluoro-3-methylpiperidin-1-yl)-7-methylquinoxalin-5-yl)ethyl)amino)picolinic acid] | 126 nM | 7060 nM
12 | Cc1cc([C@@H](C)Nc2ccc(Cl)nc2C(=O)O)c2nc(N3CCC(F)(F)[C@@H](C)C3)c(C#N)nc2c1 [Example 78B, 6-chloro-3-(((R)-1-(2-cyano-3-((S)-4,4-difluoro-3-methylpiperidin-1-yl)-7-methylquinoxalin-5-yl)ethyl)amino)picolinic acid] | 84.4 nM | > 10000 nM

Further lines, results first:

Row | IC50 [1] | IC50 [2] | SMILES
13 | 252 nM | > 10000 nM | Cc1cc([C@@H](C)Nc2ccccc2C(=O)O)c2nc(N3CCC(F)(F)[C@@H](C)C3)c(C#N)nc2c1 [Example 79A, 2-(((R)-1-(2-cyano-3-((S)-4,4-difluoro-3-methylpiperidin-1-yl)-7-methylquinoxalin-5-yl)ethyl)amino)benzoic acid]
14 | 176 nM | > 10000 nM | Cc1cc([C@@H](C)Nc2ccccc2C(=O)O)c2nc(N3CCC(F)(F)[C@H](C)C3)c(C#N)nc2c1 [Example 79B, 2-(((R)-1-(2-cyano-3-((R)-4,4-difluoro-3-methylpiperidin-1-yl)-7-methylquinoxalin-5-yl)ethyl)amino)benzoic acid]
15 | 60.7 nM | > 10000 nM | Cc1cc([C@@H](C)Nc2ccc(Cl)nc2C(=O)O)c2nc(N3CCc4ccccc4C3)c(C#N)nc2c1 [Example 83, (R)-6-chloro-3-((1-(2-cyano-3-(3,4-dihydroisoquinolin-2(1H)-yl)-7-methylquinoxalin-5-yl)ethyl)amino)picolinic acid]
16 | 343 nM | > 10000 nM | Cc1cc([C@@H](C)Nc2ccccc2C(=O)O)c2nc(N3CCc4ccccc4C3)c(C#N)nc2c1 [Example 84, (R)-2-((1-(2-cyano-3-(3,4-dihydroisoquinolin-2(1H)-yl)-7-methylquinoxalin-5-yl)ethyl)amino)benzoic acid]
17 | 270 nM | > 10000 nM | Cc1cc([C@@H](C)Nc2ccccc2C(=O)O)c2nc(N3CCc4cc(C#N)ccc4C3)c(C#N)nc2c1 [Example 86, (R)-2-((1-(2-cyano-3-(6-cyano-3,4-dihydroisoquinolin-2(1H)-yl)-7-methylquinoxalin-5-yl)ethyl)amino)benzoic acid]
18 | 88.7 nM | 9250 nM | Cc1cc([C@@H](C)Nc2ccc(Cl)nc2C(=O)O)c2nc(N3CCc4cc(F)ccc4C3)c(C#N)nc2c1 [Example 87, (R)-6-chloro-3-((1-(2-cyano-3-(6-fluoro-3,4-dihydroisoquinolin-2(1H)-yl)-7-methylquinoxalin-5-yl)ethyl)amino)picolinic acid]
19 | 365 nM | > 10000 nM | Cc1cc([C@@H](C)Nc2ccccc2C(=O)O)c2nc(N3CCc4cc(F)ccc4C3)c(C#N)nc2c1 [Example 88, (R)-2-((1-(2-cyano-3-(6-fluoro-3,4-dihydroisoquinolin-2(1H)-yl)-7-methylquinoxalin-5-yl)ethyl)amino)benzoic acid]
20 | 63.2 nM | > 10000 nM | Cc1cc([C@@H](C)Nc2ccccc2C(=O)O)c2nc(N3CCc4ccncc4C3)c(C#N)nc2c1 [Example 89, (R)-2-((1-(2-cyano-3-(3,4-dihydro-2,7-naphthyridin-2(1H)-yl)-7-methylquinoxalin-5-yl)ethyl)amino)benzoic acid]
21 | 98.1 nM | > 10000 nM | Cc1cc([C@@H](C)Nc2ccc(Cl)nc2C(=O)O)c2nc(N3CCC(S(C)(=O)=O)CC3)c(C#N)nc2c1 [Example 106, (R)-6-chloro-3-((1-(2-cyano-7-methyl-3-(4-(methylsulfonyl)piperidin-1-yl)quinoxalin-5-yl)ethyl)amino)picolinic acid]
